Data: article PMC9024893, “1,2,4-Trioxolane and 1,2,4,5-Tetraoxane Endoperoxides against Old-World Leishmania Parasites: In Vitro Activity and Mode of Action” (Pharmaceuticals, 2022)
Read-outs that look alike come from different tables or passages of the source.

What was measured:
Type in all cases: cell-based
[1] = Cytotoxicity assay (MTT), J774A.1 cell line; conditions: mouse
Description: Adherent BALB/c mouse macrophage cell line J774A.1 (ATCC® TIB 67™) and suspension human acute monocytic leukemic cell line THP-1 (ATCC® TIB-202™) were purchased from DSMZ, Germany were cultured and maintained in DMEM medium (Gibco) and RPMI 1640 (Sigma), respectively, supplemented with 10% FBS, 1% penicillin-streptomycin (Sigma) and L-glutamine 200 mM (Sigma), at 37 °C, 5% CO2.
Cell lines J774A.1 and THP-1 were used to estimate CC50 of the peroxides. Cells were plated in 96-well flat bottom culture plates (VWR) at 5 × 10^5 cells/mL. The monocytic cell line THP-1 was differentiated in RPMI medium with phorbol myristate acetate (PMA) (25 ng/mL; Sigma) for 24 h, followed by a washing step with RPMI medium. Six serial concentrations of the compounds (Table 3) were added in four replicates and the plates were incubated at 37 °C ± 1 °C, 5% CO2 for 48 h. An untreated control (cells in DMEM or RPMI medium plus 0.5% DMSO as vehicle) and blank (medium alone) were plated out in quadruplicate. After the incubation period, 20 µL/well of MTT [3-(4,5-dimethylthiazol-2-yl)-2,5-diphenyltetrazolium bromide] was added to a final concentration of 5 µg/mL in 1× phosphate-buffered saline (PBS, Merck), with an additional 4 h incubation at 36 °C, as previously described. The formazan salts were resuspended in 2-propanol (Merck) and the cell viability was determined by measuring absorbance with a Synergy ™HTX Multi Mode Microplate Reader at 595 nm (Dynex Technologies). The CC50 values were calculated fitting the data as a non-linear regression with variable slope using a dose-response inhibitory model, in the GraphPad Prism V 8.0 program. Each compound was tested in three independent assays.

[2] = test system: L. donovani BD14 promastigotes; experiment: Promastigotes susceptibility assay (MTT), L. donovani; conditions: Leishmania donovani; 48 h incubation, MTT; read-out: IC50 ± SD, L. donovani promastigotes
Description: (§1) Promastigote forms of strains of L. infantum (MHOM/PT/1988/IMT151) and L. donovani (MHOM/BD/2006/BD14) were cultured at 24 °C ± 1 °C in M199 medium (Sigma) supplemented with 20% foetal bovine serum (FBS, Sigma) and 1% penicillin-streptomycin (Sigma). L. infantum strain belongs to IHMT, Portugal cryobank collection and the L. donovani strain was kindly provided by Dr. Katrin Kuhls, Technical University of Applied Sciences Wildau, Germany. Promastigotes used for the experiments had 7 to 12 in vitro passages in culture after isolation from mice, in order to keep virulence, and were used when the stationary phase of growth was reached (day 5 to 6), corresponding to the highest promastigotes density.
(§2) For the determination of the antileishmanial activity and IC50, promastigotes of L. infantum and L. donovani were plated in 96-well flat bottom culture plates at a concentration of 5 × 10^6 parasites/mL and incubated with six serial concentrations of each compound (Table 3), in four replicates, including the control drugs, amphotericin B, miltefosine and pentamidine. One untreated control (parasites with M199 medium plus 0.5% DMSO as vehicle solution) and one blank (M199 medium alone) were also plated out in quadruplicate. After 48 h incubation at 24 °C ± 1 °C, the inhibitory activity of the compounds was evaluated using the MTT, as previously described, with an additional 4 h incubation at 36 °C. Results were expressed in terms of percentage of parasite viability relative to nontreated control and IC50 was calculated fitting the data as a non-linear regression with variable slope using a dose-response inhibitory model, in the GraphPad Prism V 8.0 program. Each compound was tested in three independent assays. […]

[3] = test system: L. donovani BD14 intracellular amastigotes; experiment: Intracellular amastigotes assay in J774A.1 macrophages, L. donovani; conditions: Leishmania donovani, J774.A1; 48 h incubation, J774A.1 host cells; read-out: IC50 ± SD, L. donovani intracellular amastigotes
Description: (§3) The intracellular assay using the macrophage J774A.1 cell line was performed with the compounds that presented best SI on the promastigote’s susceptibility assay. J774A.1 cells were adjusted to 2.5 × 10^5 cells/mL in supplemented DMEM medium. 200 μL/well of the cell suspension was placed in 16 well Lab Tek culture glass slides (Nunc), and incubated at 37 °C ± 1 °C, 5% CO2, for 3 h, to enable the cells to adhere to the slides. After a washing step with DMEM to discard non-attached cells, the cells were infected with 2.5 × 10^6 cells/mL promastigotes in a 10:1 parasite-host cell proportion for 24 h. Compounds and control drugs were added in two replicates of six serial concentrations (Table 3). As negative control, macrophages were cultivated in medium and DMSO, as vehicle solution (0.5% v/v). Slides were incubated for 48 h at the same temperature. After a washing step with 1× PBS (Sigma), slides were fixed and stained, and the infection index was calculated according to [34] by counting the number of intracellular amastigotes per 100 macrophages, in treated and untreated cells. Two independent experiments were performed to determine the amastigotes IC50 of each compound, which was calculated by fitting the data as a non-linear regression with variable slope using a dose-response inhibitory model, in the GraphPad Prism V 8.0 program. SI was determined as described above.

[4] = test system: L. infantum IMT151 intracellular amastigotes; experiment: Intracellular amastigotes assay in J774A.1 macrophages, L. infantum; conditions: Leishmania infantum, J774.A1; 48 h incubation, J774A.1 host cells; read-out: IC50 ± SD, L. infantum intracellular amastigotes
Description: as §3

[5] = test system: L. infantum IMT151 promastigotes; experiment: Promastigotes susceptibility assay (MTT), L. infantum; conditions: Leishmania infantum; 48 h incubation, MTT; read-out: IC50 ± SD, L. infantum promastigotes
Description: as §1, §2

`C[C@@H]1[C@H](O)[C@@H](C)/C=C/C=C/C=C/C=C/C=C/C=C/C=C/[C@H](O[C@@H]2O[C@H](C)[C@@H](O)[C@H](N)[C@@H]2O)C[C@@H]2O[C@](O)(C[C@@H](O)C[C@@H](O)[C@H](O)CC[C@@H](O)C[C@@H](O)CC(=O)O[C@H]1C)C[C@H](O)[C@H]2C(=O)O` [AmB, amphotericin B, reference compound] gave a CC50 at 48 h [1] of 71.9 ± 5.4 µM, an IC50 [2] of 0.3 µM and an IC50 [3] of 0.1 µM. For the same molecule, the IC50 [4] was 0.3 ± 0.1 µM and the IC50 [5] was 0.2 µM.
`CCOC(=O)C1CCC2(CC1)OOC1(OO2)C2CC3CC(C2)CC1C3` (stereo not shown) [LC138] showed a CC50 at 48 h ([1]; J774A.1 macrophage cells, 48 h incubation, MTT, read-out: CC50 ± SD, J774A.1 Cell Line) of 528 ± 54 µM, an IC50 [2] of 240 ± 34.8 µM and an IC50 [3] of 426 ± 25.5 µM. It also gave an IC50 [4] of 23.9 ± 2.7 µM and an IC50 [5] of 125 ± 1.6 µM.
